Drawing on patent US8916557B2, “Substituted 4-Aryl-N-phenyl-1,3,5-triazin-2-amines” (Bayer Intellectual Property GmbH, priority 2011, dated 2014), this text covers IC50 for 16 compounds.

Assay [1] relates to B16F10 mouse melanoma cells. Description: Proliferation assay (crystal violet), B16F10. The format is cell-based. The settings on record: B16-F10, read-out: Inhibition of B16F10 cell proliferation. The protocol: (§1) Cultivated tumour cells (NCI-H460, human non-small cell lung carcinoma cells, ATCC HTB-177; DU 145, hormone-independent human prostate carcinoma cells, ATCC HTB-81; HeLa-MaTu, human cervical carcinoma cells, EPO-GmbH, Berlin; HeLa-MaTu-ADR, multidrug-resistant human cervical carcinoma cells, EPO-GmbH, Berlin; HeLa human cervical tumour cells, ATCC CCL-2; Caco-2 human colorectal carcinoma, ATCC HTB-37; B16F10 mouse melanoma cells, ATCC CRL-6475) were plated at a density of 5000 cells/well (DU145, HeLa-MaTu-ADR), 3000 cells/well (NCI-H460, HeLa-MaTu, HeLa), 1500 cells/well (Caco-2), or 1000 cells/well (B16F10) in a 96-well multititer plate in 200 μL of their respective growth medium supplemented 10% fetal calf serum. After 24 hours, the cells of one plate (zero-point plate) were stained with crystal violet (see below), while the medium of the other plates was replaced by fresh culture medium (200 μl), to which the test substances were added in various concentrations (0 μM, as well as in the range of 0.001-10 μM; the final concentration of the solvent dimethyl sulfoxide was 0.5%). The cells were incubated for 4 days in the presence of test substances. Cell proliferation was determined by staining the cells with crystal violet: the cells were fixed by adding 20 μl/measuring point of an 11% glutaric aldehyde solution for 15 minutes at room temperature. After three washing cycles of the fixed cells with water, the plates were dried at room temperature. The cells were stained by adding 100 μl/measuring point of a 0.1% crystal violet solution (pH 3.0). After three washing cycles of the stained cells with water, the plates were dried at room temperature. The dye was dissolved by adding 100 μl/measuring point of a 10% acetic acid solution. The extinction was determined by photometry at a wavelength of 595 nm. The change of cell number, in percent, was calculated by normalization of the measured values to the extinction values of the zero-point plate (=0%) and the extinction of the untreated (0 μm) cells (=100%). The IC50 values were determined by means of a 4 parameter fit.

Assay [2] deals with DU 145, hormone-independent human prostate carcinoma cells. The experiment in a line: Proliferation assay (crystal violet), DU 145. It is filed as cell-based. The conditions noted are these: DU145 cells, read-out: Inhibition of DU145 cell proliferation.
Assay [3] deals with T1, CDK2/CycE (Homo sapiens, UniProt P24941).
T1 construct: GST; purchased ProQinase GmbH (Freiburg, Germany); host or cells: insect cells (Sf9)
Description: CDK2/CycE kinase assay (TR-FRET). The format is biochemical. The conditions noted are these: Method 2, 10 μM ATP. The gist of the method: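 TR-FRET read-out: emission ratio 665/620 nm via anti-RB(pSer807/pSer811) antibody, Eu-anti-mouse IgG and streptavidin-XL665. Kinase reaction: insect-cell GST-CDK2/CycE, compound pre-bound 15 min, 10 μM ATP final, 0.75 μM biotin-peptide, 25 min, 22 °C, pH 8.0.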

In assay [4] the test system is HeLa-MaTu-ADR, multidrug-resistant human cervical carcinoma cells. The experiment in a line: Proliferation assay (crystal violet), HeLa-MaTu-ADR. The settings on record: read-out: Inhibition of HeLa/MaTu/ADR cell proliferation. The format is cell-based. As for the experimental part:
as §1

Assay [5] deals with NCI-H460, human non-small cell lung carcinoma cells. The experiment in a line: Proliferation assay (crystal violet), NCI-H460. It is filed as cell-based. The settings on record: read-out: Inhibition of H460 cell proliferation (activity range). As for the experimental part: as §1
In assay [6] the test system is HeLa human cervical tumour cells. The experiment in a line: Proliferation assay (crystal violet), HeLa. The format is cell-based. The settings on record: read-out: Inhibition of HeLa cell proliferation.

pIC50: −log10 of the molar value.

Consider `CCOc1cc(F)ccc1-c1ncnc(Nc2cccc(CS(C)(=O)=O)c2)n1` [Example 42, 4-(2-Ethoxy-4-fluorophenyl)-N-{3-[(methylsulfonyl)-methyl]phenyl}-1,3,5-triazin-2-amine], for which the pIC50 in assay [1] is 6.43; in assay [2] it was 6.59; in assay [3], 6.23; in assay [4], 6.66; in assay [5] it was 6.54; in assay [6] it was 6.48.
`CS(=O)(=O)Cc1cccc(Nc2ncnc(-c3ccccc3OCc3cccc(Cl)c3)n2)c1` [Example 28, 4-{2-[(3-Chlorobenzyl)oxy]phenyl}-N-{3-[(methylsulfonyl)methyl]phenyl}-1,3,5-triazin-2-amine]: the pIC50 in assay [1] was 6.41; in assay [2] it was 6.38; in assay [3], 6.30; in assay [4], 6.46; in assay [5] it was 6.43; in assay [6], 6.44.
As for `CCCCOc1cc(F)ccc1-c1ncnc(Nc2cccc(CS(C)(=O)=O)c2)n1` [Example 44, 4-(2-Butoxy-4-fluorophenyl)-N-{3-[(methylsulfonyl)-methyl]phenyl}-1,3,5-triazin-2-amine], the pIC50 in assay [1] was 6.24; in assay [2], 6.28; in assay [3] it was 6.04; in assay [4], 6.49; in assay [5], 6.36; in assay [6], 6.47.
Regarding `CS(=O)(=O)Cc1cccc(Nc2ncnc(-c3ccc(F)cc3OCc3ccnc(Cl)c3)n2)c1` [Example 88, 4-{2-[(2-Chloropyridin-4-yl)methoxy]-4-fluorophenyl}-N-{3-[(methylsulfonyl)-methyl]phenyl}-1,3,5-triazin-2-amine], the pIC50 was 6.64 in assay [1]; 6.77 in assay [2]; 6.89 in assay [3]; 6.57 in assay [4]; 6.68 in assay [5]; 6.72 in assay [6].
In the case of `CS(=O)(=O)Cc1cccc(Nc2ncnc(-c3cc(F)ccc3OCc3cccc(F)c3)n2)c1` [Example 31, 4-{5-Fluoro-2-[(3-fluorobenzyl)oxy]phenyl}-N-{3-[(methylsulfonyl)methyl]phenyl}-1,3,5-triazin-2-amine], the pIC50 in assay [1] is 6.55; in assay [2], 6.55; in assay [3], 6.48; in assay [4], 6.80; in assay [5] it was 6.70; in assay [6] it was 6.54.
Consider `CS(=O)(=O)Cc1cccc(Nc2ncnc(-c3ccc(F)cc3OCCCC(F)(F)F)n2)c1` [Example 59, 4-[4-Fluoro-2-(4,4,4-trifluorobutoxy)phenyl]-N-{3-[(methylsulfonyl)methyl]phenyl}-1,3,5-triazin-2-amine], for which the pIC50 was 6.48 in assay [1]; 6.66 in assay [2]; 6.15 in assay [3]; 6.66 in assay [4]; 6.46 in assay [5]; 6.33 in assay [6].
Consider `COc1cc(F)ccc1-c1ncnc(Nc2cccc(CS(=O)(=O)C3CC3)c2)n1` [Example 40, N-{3-[(Cyclopropylsulfonyl)methyl]phenyl}-4-(4-fluoro-2-methoxyphenyl)-1,3,5-triazin-2-amine], for which the pIC50 in assay [1] was 6.09; in assay [2], 6.22; in assay [3], 5.89; in assay [4], 6.29; in assay [5], 6.22; in assay [6] it was 6.19.
Regarding `CS(=O)(=O)Cc1cccc(Nc2ncnc(-c3ccc(F)cc3OCc3cccc(Cl)c3)n2)c1` [Example 85, 4-{2-[(3-Chlorobenzyl)oxy]-4-fluorophenyl}-N-{3-[(methylsulfonyl)methyl]phenyl}-1,3,5-triazin-2-amine], the pIC50 was 6.35 in assay [1]; 6.39 in assay [2]; 6.59 in assay [3]; 6.46 in assay [4]; 6.44 in assay [5]; 6.49 in assay [6].
On to `CS(=O)(=O)Cc1cccc(Nc2ncnc(-c3ccc(F)cc3OCc3ccccc3)n2)c1` [Example 4, 4-[2-(Benzyloxy)-4-fluorophenyl]-N-{3-[(methylsulfonyl)methyl]phenyl}-1,3,5-triazin-2-amine], for which the pIC50 in assay [1] is 6.89; in assay [3], 7.05; in assay [4] it was 7.00; in assay [5], 6.82; in assay [6] it was 7.00.
Take `COc1cc(F)c(F)cc1-c1ncnc(Nc2cccc(CS(C)(=O)=O)c2)n1` [Example 1, 4-(4,5-Difluoro-2-methoxyphenyl)-N-{3-[(methylsulfonyl)methyl]phenyl}-1,3,5-triazin-2-amine]: the pIC50 was 6.00 in assay [1]; 6.08 in assay [2]; 6.19 in assay [3]; 6.40 in assay [4]; 6.04 in assay [5]; 6.17 in assay [6].
With `CS(=O)(=O)Cc1cccc(Nc2ncnc(-c3ccc(F)cc3OCc3ccc(C#N)cc3)n2)c1` [Example 90, 4-({5-Fluoro-2-[4-({3-[(methylsulfonyl)methyl]phenyl}amino)-1,3,5-triazin-2-yl]phenoxy}methyl)-benzonitrile], the pIC50 in assay [1] was 6.49; in assay [2], 6.55; in assay [3], 6.17; in assay [4], 6.48; in assay [5], 7.22; in assay [6], 6.96.
With `Cc1cc(COc2cc(F)ccc2-c2ncnc(Nc3cccc(CS(C)(=O)=O)c3)n2)ccn1` [Example 87, 4-{4-Fluoro-2-[(2-methylpyridin-4-yl)methoxy]-phenyl}-N-{3-[(methylsulfonyl)methyl]phenyl}-1,3,5-triazin-2-amine], the pIC50 in assay [1] was 6.43; in assay [2] it was 6.52; in assay [3], 6.43; in assay [4], 6.13; in assay [5], 6.47; in assay [6] it was 6.49.
For the compound `CS(=O)(=O)Cc1cccc(Nc2ncnc(-c3ccc(F)cc3OCc3ccncc3)n2)c1` [Example 89, 4-[4-Fluoro-2-(pyridin-4-ylmethoxy)phenyl]-N-{3-[(methylsulfonyl)methyl]phenyl}-1,3,5-triazin-2-amine], the pIC50 in assay [1] is 6.60; in assay [2], 6.74; in assay [3], 6.40; in assay [4] it was 6.47; in assay [5], 6.77; in assay [6], 6.96.
Take `CS(=O)(=O)Cc1cccc(Nc2ncnc(-c3ccc(F)cc3OCC3CC3)n2)c1` [Example 55, 4-[2-(Cyclopropylmethoxy)-4-fluorophenyl]-N-{3-[(methylsulfonyl)methyl]phenyl}-1,3,5-triazin-2-amine]: the pIC50 was 6.02 in assay [1]; 6.24 in assay [2]; 5.85 in assay [3]; 6.49 in assay [4]; 6.31 in assay [5]; 6.08 in assay [6].
On to `COc1cc(F)ccc1-c1ncnc(Nc2cccc(CS(=O)(=O)C3CCCCC3)c2)n1` [Example 9, N-{3-[(Cyclohexylsulfonyl)methyl]phenyl}-4-(4-fluoro-2-methoxyphenyl)-1,3,5-triazin-2-amine], for which the pIC50 was 5.89 in assay [1]; 6.08 in assay [2]; 6.25 in assay [3]; 6.38 in assay [4]; 6.16 in assay [5]; 6.00 in assay [6].
As for `COc1cc(F)ccc1-c1ncnc(Nc2cccc(CS(C)(=O)=O)c2)n1` [Example 3, 4-(4-Fluoro-2-methoxyphenyl)-N-{3-[(methylsulfonyl)methyl]phenyl}-1,3,5-triazin-2-amine], the pIC50 is 5.77 in assay [1]; 5.92 in assay [2]; 5.80 in assay [3]; 6.04 in assay [4]; 5.92 in assay [5].
